Data set [1] is described as follows: Solubility Screening of CHG in vehicles, Vacuum Method. The protocol:
Solubility Screening. Screening tests were conducted to determine the solubility of CHG in a wide variety of vehicles. Tests were conducted using the Vacuum Method and the Lyophilizing Method.
Vacuum Method. […] The flask was put in a 60° C. oil bath and stirred with a magnetic stir bar. […] In those cases, after nearly all the water was removed, additional vehicle was added to bring the final weight to 50 grams. The resulting concentration of CHG and residual water were determined. Also, the final state of the solution was qualitatively evaluated to determine if the mixture was transparent and apparently homogenous, or clearly inhomogeneous.

The nature of data set [2]: Solubility of lyophilized CHG in vehicles, Lyophilization Method. As to conditions: for Apparent solubility 2 minutes / Apparent solubility 2 hours 50° C. / Apparent solubility >24 hours / Apparent solubility after cooling / Apparent solubility immediate: 0.2 wt. % lyophilized CHG; for Apparent solubility 2 minutes: after 2 minutes; for Apparent solubility 2 hours 50° C.: after 2 hours in 50° C. oven; for Apparent solubility >24 hours: after 24 hours; for Apparent solubility after cooling: after cooling to room temperature; for Apparent solubility immediate: observed immediately after mixing. As for the experimental part: The Lyophilization Method. Lyophilized CHG was prepared by freeze-drying the aqueous CHG solution (20 wt. % solution in water, obtained from Xttrium Laboratories Inc., Chicago, Ill.).
For lower viscosity vehicles, a 5 ml sample of the non-aqueous vehicle of interest was measured into a glass vial. For higher viscosity vehicles that were difficult to transfer by volume, a 5 gm sample was weighed into the vial. Next, 0.01 g of lyophilized CHG was added to the vial. The sample was capped and mixed by shaking for 30 seconds. The sample was immediately observed and then observed again after 2 minutes and again after 24 hours. After 24 hours, the sample was placed in a 50° C. oven for 2 hours and then removed and immediately observed. These samples were allowed to cool to room temperature and a final observation was made.
CHG solutions. The solutions containing CHG were either a 20 wt. % aqueous solution of CHG or a 10-20% w/w solution of CHG in a non-aqueous vehicle. The non-aqueous solutions were prepared by freeze drying the aqueous CHG solution to produce lyophilized CHG. Finely divided, lyophilized CHG was then solubilized in a non-aqueous vehicle at room temperature with continuous stirring for eight hours.

Turning to Isolaureth-10, in data set [1], the “Final State” value is “Inhomogeneous”. For the same substance, in data set [2], the “Apparent solubility 2 minutes” value is on record as “no”, the “Apparent solubility 2 hours 50° C.” value is on record as “soluble”, the “Apparent solubility >24 hours” value is reported as “partial” and the “Apparent solubility after cooling” value is on record as “soluble”. Also, the Apparent solubility immediate result in data set [2] is recorded as “no”.
For the substance Oleth-2, in data set [2], the “Apparent solubility 2 minutes” value is listed as “no”, the “Apparent solubility 2 hours 50° C.” value is on record as “partial”, the “Apparent solubility >24 hours” value is given as “no” and the “Apparent solubility after cooling” value is “partial”. Further, the Apparent solubility immediate result in data set [2] is reported as “no”.
For PEG-20 glyceryl Triisostearate, in data set [2], the “Apparent solubility 2 minutes” value is listed as “partial”, the “Apparent solubility 2 hours 50° C.” value is reported as “partial”, the “Apparent solubility >24 hours” value was “partial” and the “Apparent solubility after cooling” value is recorded as “partial”. In addition, the Apparent solubility immediate result in data set [2] is “no”.
Take PPG-5 Ceteth-20: the “Final State” value in data set [1] is on record as “Inhomogeneous”. In data set [2], the “Apparent solubility 2 minutes” value is “no”, the “Apparent solubility 2 hours 50° C.” value is on record as “soluble”, the “Apparent solubility >24 hours” value is reported as “partial” and the “Apparent solubility after cooling” value is given as “soluble”. Moreover, in data set [2], the Apparent solubility immediate result is recorded as “no”.
For Polyglycerol-3 Diisostearate, in data set [2], the “Apparent solubility 2 minutes” value is reported as “no”, the “Apparent solubility 2 hours 50° C.” value is recorded as “soluble”, the “Apparent solubility >24 hours” value was “soluble” and the “Apparent solubility after cooling” value is “partial”. Also, the Apparent solubility immediate entry in data set [2] is listed as “no”.
On to sorbitan trioleate, for which the “solubility of CHG in vehicle (dissolution experiments using lyophilized CHG)” value in data set [2] (lyophilized CHG) was “limited”.
